Experimental data reported in US20250074920A1, “MACROCYCLIC COMPOUNDS AND USE AS KINASE INHIBITORS” (BLOSSOMHILL THERAPEUTICS, INC., priority 2022, published 2025).

Legend:
Test in all cases: KINOMEscan kinase binding assay
[1] = target: TYK2(JH2domain-pseudokinase); settings: read-out: TYK2(JH2 domain-pseudokinase) Kd
Experimental: (§1) Kinase binding assays were performed at Eurofins/DiscoveRx using the general KINOMEscan Protocol (Fabian, M. A. et al., “A small molecule-kinase interaction map for clinical kinase inhibitors,” Nat. Biotechnol. 2005, 23(3):329-36). For most assays, kinase-tagged T7 phage strains were prepared in an E. coli host derived from the BL21 strain. E. coli were grown to log-phase and infected with T7 phage and incubated with shaking at 32° C. until lysis. The lysates were centrifuged and filtered to remove cell debris. The remaining kinases were produced in HEK-293 cells and subsequently tagged with DNA for qPCR detection. Streptavidin-coated magnetic beads were treated with biotinylated small molecule ligands for 30 minutes at room temperature to generate affinity resins for kinase assays. The liganded beads were blocked with excess biotin and washed with blocking buffer (SeaBlock (Pierce), 1% BSA, 0.05% Tween 20, 1 mM DTT) to remove unbound ligand and to reduce nonspecific binding. Binding reactions were assembled by combining kinases, liganded affinity beads, and test compounds in 1× binding buffer (20% SeaBlock, 0.17×PBS, 0.05% Tween 20, 6 mM DTT). All reactions were performed in polystyrene 96-well plates in a final volume of 0.135 mL. The assay plates were incubated at room temperature with shaking for 1 hour and the affinity beads were washed with wash buffer (1×PBS, 0.05% Tween 20). The beads were then re-suspended in elution buffer (1×PBS, 0.05% Tween 20, 0.5 μM non-biotinylated affinity ligand) and incubated at room temperature with shaking for 30 minutes. The kinase concentration in the eluates was measured by qPCR. Results for compounds tested in this assay at a given concentration are reported as “% Ctrl”, where lower numbers indicate stronger binding in the matrix. % Ctrl was calculated as (test compound signal-positive control signal)/(negative control signal-positive control signal)×100. Dissociation constants (Kds) for test compound-kinase interactions were calculated by measuring the amount of kinase captured on the solid support as a function of the test compound concentration.

[2] = target: JAK1(JH1domain-catalytic); settings: read-out: JAK1(JH1 domain-catalytic) Kd
Experimental: as §1

[3] = target: TYK2(JH1domain-catalytic); settings: read-out: TYK2(JH1 domain-catalytic) Kd
Experimental: as §1

[4] = target: JAK1(JH2domain-pseudokinase); settings: read-out: JAK1(JH2 domain-pseudokinase) Kd
Experimental: as §1

[5] = target: JAK3(JH1domain-catalytic); settings: read-out: JAK3(JH1 domain-catalytic) Kd
Experimental: as §1

[6] = target: JAK2(JH1domain-catalytic); settings: read-out: JAK2(JH1 domain-catalytic) Kd
Experimental: as §1

Compound | Kd [1] | Kd [2] | Kd [3] | Kd [4] | Kd [5] | Kd [6]
Cc1cc2c([nH]1)/C=C1\C(=O)Nc3c(Cl)cc(cc31)-c1cn(C)nc1COCCN(C)C2=O [Cpd. 7, [3a(4)Z]-20-chloro-6,9,15-trimethyl-10,11,13,15-tetrahydro-2H-1,17-(ethanediylidene)pyrazolo[4,3-m]dipyrrolo[3,2-f:3′,4′-i][1,4]oxazacyclopentadecine-3,8(5H,9H)-dione] | 0.51 nM | > 10000 nM | > 10000 nM | 47 nM | > 10000 nM | > 10000 nM
Cc1nc2c([nH]1)/C=C1\C(=O)Nc3c(Cl)cc(cc31)-c1cn(C)nc1COC[C@@H](C)N(C)C2=O [Cpd. 8, [3a(4)Z,10R]-20-chloro-6,9,10,15-tetramethyl-10,11,13,15-tetrahydro-2H-1,17-(ethanediylidene)imidazo[4,5-f]pyrazolo[4,3-m]pyrrolo[3,4-i][1,4]oxazacyclopentadecine-3,8(5H,9H)-dione] | 170 nM | > 10000 nM | > 10000 nM |  | > 10000 nM | > 10000 nM
Cc1cc2c([nH]1)/C=C1\C(=O)Nc3c(Cl)cc(cc31)-c1[nH]c(C)nc1COC[C@@H](C)N(C)C2=O [Cpd. 9, [3a(4)Z,10R]-20-chloro-6,9,10,15-tetramethyl-10,11,13,16-tetrahydro-2H-1,17-(ethanediylidene)imidazo[4,5-m]dipyrrolo[3,2-f:3′,4′-i][1,4]oxazacyclopentadecine-3,8(5H,9H)-dione] | 1 nM | > 10000 nM | > 10000 nM | 130 nM | 3100 nM | > 10000 nM
Cc1cc2c([nH]1)/C=C1\C(=O)Nc3c(C#N)cc(cc31)-c1cn(C)nc1COC[C@@H](C)N(C)C2=O [Cpd. 10, [3a(4)Z,10R]-6,9,10,15-tetramethyl-3,8-dioxo-3,5,8,9,10,11,13,15-octahydro-2H-1,17-(ethanediylidene)pyrazolo[4,3-m]dipyrrolo[3,2-f:3′,4′-i][1,4]oxazacyclopentadecine-20-carbonitrile] | 46 nM | > 1000 nM |  |  | > 1000 nM | > 1000 nM
Cc1cc2c([nH]1)/C=C1\C(=O)Nc3c(Cl)cc(cc31)-c1cn(C)nc1COC[C@H](C)N(C)C2=O [compound 6, [3a(4)Z,10S]-20-chloro-6,9,10,15-tetramethyl-10,11,13,15-tetrahydro-2H-1,17-(ethanediylidene)pyrazolo[4,3-m]dipyrrolo[3,2-f:3′,4′-i][1,4]oxazacyclopentadecine-3,8(5H,9H)-dione] | 2.5 nM | > 10000 nM | > 10000 nM | 160 nM | > 10000 nM | > 10000 nM
Cc1cc2c([nH]1)/C=C1\C(=O)Nc3c(F)cc(cc31)-c1c(nn(C)c1C)COC[C@@H](C)N(C)C2=O [compound 11, [3a(4)Z,10R]-20-fluoro-6,9,10,15,16-pentamethyl-10,11,13,15-tetrahydro-2H-1,17-ethenopyrazolo[4,3-m]dipyrrolo[3,2-f:3′,4′-i][1,4]oxazacyclopentadecine-3,8(5H,9H)-dione] | 3.4 nM | > 10000 nM | > 10000 nM | 730 nM | 5200 nM | > 10000 nM
Cc1cc2c([nH]1)/C=C1\C(=O)Nc3c(Cl)cc(cc31)-c1c(nn(C)c1C)COC[C@@H](C)N(C)C2=O [compound 12, [3a(4)Z,10R]-20-chloro-6,9,10,15,16-pentamethyl-10,11,13,15-tetrahydro-2H-1,17-ethenopyrazolo[4,3-m]dipyrrolo[3,2-f:3′,4′-i][1,4]oxazacyclopentadecine-3,8(5H,9H)-dione] | 1.3 nM | > 10000 nM | > 10000 nM | 120 nM | > 10000 nM | > 10000 nM
Cc1cc2c([nH]1)/C=C1\C(=O)Nc3c(F)cc(cc31)-c1cn(C)nc1COC[C@@H](C)N(C)C2=O [compound 13, [3a(4)Z,10R]-20-fluoro-6,9,10,15-tetramethyl-10,11,13,15-tetrahydro-2H-1,17-ethenopyrazolo[4,3-m]dipyrrolo[3,2-f:3′,4′-i][1,4]oxazacyclopentadecine-3,8(5H,9H)-dione] | 1 nM | > 10000 nM | > 10000 nM | 410 nM | > 10000 nM | > 10000 nM
